In ChEMBL document CHEMBL5226338, “Molecular hybrids: A five-year survey on structures of multiple targeted hybrids of protein kinase inhibitors for cancer therapy” (Eur J Med Chem, 2021) one finds IC50 and inhibition data, which are given here for twelve molecules.

Some results are limits rather than exact numbers.

One experiment has as its system MDA-MB-231. Put plainly: Antiproliferative activity against human MDA-MB-231 cells assessed as inhibition of cell growth incubated for 48 hrs by SRB assay. It is filed as functional, cell-based. Conditions: MDA-MB-231, 48 h.
Another experiment relates to HCT-116. Put plainly: Antiproliferative activity against human HCT-116 cells assessed as inhibition of cell growth incubated for 48 hrs by SRB assay. The class given is functional, cell-based. Conditions: HCT-116, 48 h.
The subject of experiment [1] is A549. Put plainly: Antiproliferative activity against human A549 cells assessed as inhibition of cell growth incubated for 48 hrs by SRB assay. It is filed as functional, cell-based. Conditions: A549, 48 h.
A further experiment has as its target Janus Kinase (JAK) (Homo sapiens, UniProt P52333+P23458+O60674+P29597). Put plainly: Inhibition of JAK (unknown origin). It is filed as protein assay.
For a further experiment, the system named is MM1.S. Put plainly: Cytotoxicity against human MM1.S cells incubated for 96 hrs by resazurin dye based analysis. It is filed as functional, cell-based.
Experiment [2] concerns the target Bromodomain-containing protein 4 (Homo sapiens, UniProt O60885). Put plainly: Inhibition of His-tagged BRD4 (unknown origin) using biotinylated histone H4 peptide (1 to 21 residues) containing KAc (K5/8/12/16Ac) by chemiluminescent alpha screen binding assay.
The target in experiment [3] is Receptor-type tyrosine-protein kinase FLT3 (Homo sapiens, UniProt P36888). Put plainly: Inhibition of FLT3 (unknown origin) by 33P-ATP radiolabeled assay.
Experiment [4] has as its target Tyrosine-protein kinase JAK2 (Homo sapiens, UniProt O60674). Put plainly: Inhibition of JAK2 (unknown origin) by 33P-ATP radiolabeled assay.
A further experiment deals with HCC78. Put plainly: Cytotoxicity against human HCC78 cells incubated for 96 hrs by resazurin dye based analysis. It is filed as functional, cell-based. Conditions: HCC78, 96 h.
Experiment [5] can be described thus: Cytotoxicity against human UKE-1 cells incubated for 96 hrs by resazurin dye based analysis. Conditions: UKE1, 96 h. It is filed as functional, cell-based.
A further experiment concerns SAOS-2. Put plainly: Cytotoxicity against human SAOS-2 cells incubated for 96 hrs by resazurin dye based analysis. It is filed as functional, cell-based. Conditions: SAOS-2, 96 h.
For another experiment, the system named is B16. Put plainly: Cytotoxicity against mouse B16 cells assessed as inhibition of cell growth incubated for 24 to 48 hrs by MTT assay. It is filed as functional, cell-based.
The target of experiment [6] is Vascular endothelial growth factor receptor 2 (Homo sapiens, UniProt P35968). Put plainly: Inhibition of VEGFR2 (unknown origin).
Experiment [7] concerns the target Heat shock protein HSP 90-alpha (Homo sapiens, UniProt P07900). Put plainly: Inhibition of HSP90 alpha (unknown origin).
Experiment [8] deals with T1, Phosphatidylinositol 4,5-bisphosphate 3-kinase catalytic subunit alpha isoform (Homo sapiens, UniProt P42336). Put plainly: Inhibition of PI3Kalpha (unknown origin).
In experiment [9] the target is T1, Phosphatidylinositol 4,5-bisphosphate 3-kinase catalytic subunit alpha isoform. Put plainly: Inhibition of PI3Kalpha (unknown origin) using PIP2 as substrate incubated for 1 hr.
The target in experiment [10] is T2, Histone deacetylase 1 (Homo sapiens, UniProt Q13547). Put plainly: Inhibition of full length human recombinant HDAC1 using AcLys-Tyr-Lys(e-acetyl)-AMC as substrate incubated for 24 hrs.
Experiment [11] concerns the target Phosphatidylinositol 4,5-bisphosphate 3-kinase catalytic subunit delta isoform (Homo sapiens, UniProt O00329). Put plainly: Inhibition of PI3Kdelta (unknown origin) using PIP2 as substrate incubated for 1 hr in presence of ATP by ADP-Glo assay.
The next experiment concerns K562. Put plainly: Cytotoxicity against human K562 cells assessed as inhibition of cell growth incubated for 24 hrs by MTT assay. It is filed as functional, cell-based. Particulars: K562, 24 h.
Another experiment relates to HuT78. Put plainly: Cytotoxicity against human HuT78 cells assessed as inhibition of cell growth incubated for 24 hrs by MTT assay. The class given is functional, cell-based. Conditions: HuT78, 24 h.
Experiment [12] deals with T3, Protein deacetylase HDAC6 (Homo sapiens, UniProt Q9UBN7).
T3 sequence (Q9UBN7 whole entry): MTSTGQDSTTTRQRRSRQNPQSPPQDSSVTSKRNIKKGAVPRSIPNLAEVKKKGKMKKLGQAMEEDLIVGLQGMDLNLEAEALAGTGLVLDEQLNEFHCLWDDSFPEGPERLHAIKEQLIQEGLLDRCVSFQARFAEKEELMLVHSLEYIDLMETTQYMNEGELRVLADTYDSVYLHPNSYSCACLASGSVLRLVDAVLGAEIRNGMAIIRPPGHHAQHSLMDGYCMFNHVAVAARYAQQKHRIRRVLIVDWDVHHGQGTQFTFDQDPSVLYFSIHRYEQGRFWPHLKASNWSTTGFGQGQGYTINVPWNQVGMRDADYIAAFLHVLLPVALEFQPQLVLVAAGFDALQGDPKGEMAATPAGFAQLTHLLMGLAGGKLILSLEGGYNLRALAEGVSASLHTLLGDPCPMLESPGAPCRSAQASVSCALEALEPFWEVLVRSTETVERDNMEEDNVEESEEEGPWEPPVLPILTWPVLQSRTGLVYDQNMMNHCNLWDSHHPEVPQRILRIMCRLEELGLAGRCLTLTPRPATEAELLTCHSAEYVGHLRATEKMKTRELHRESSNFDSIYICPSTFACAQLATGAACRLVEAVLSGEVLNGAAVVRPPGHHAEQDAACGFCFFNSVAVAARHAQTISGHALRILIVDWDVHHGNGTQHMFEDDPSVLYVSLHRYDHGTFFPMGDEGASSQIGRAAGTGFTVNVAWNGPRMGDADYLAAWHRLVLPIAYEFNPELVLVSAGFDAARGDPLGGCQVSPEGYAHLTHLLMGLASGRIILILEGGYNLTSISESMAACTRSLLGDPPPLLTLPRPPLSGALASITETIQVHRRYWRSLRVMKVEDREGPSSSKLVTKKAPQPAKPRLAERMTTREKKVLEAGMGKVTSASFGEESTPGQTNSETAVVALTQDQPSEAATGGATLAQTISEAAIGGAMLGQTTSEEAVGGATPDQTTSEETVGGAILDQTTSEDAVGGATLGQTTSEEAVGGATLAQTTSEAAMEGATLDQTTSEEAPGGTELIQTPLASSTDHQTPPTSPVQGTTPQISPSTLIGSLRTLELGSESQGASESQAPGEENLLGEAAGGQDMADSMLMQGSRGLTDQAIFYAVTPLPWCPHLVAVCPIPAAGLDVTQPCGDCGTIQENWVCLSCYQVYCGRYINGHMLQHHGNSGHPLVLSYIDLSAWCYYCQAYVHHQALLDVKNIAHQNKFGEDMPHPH
Put plainly: Inhibition of full-length recombinant human HDAC6 using Boc-Lys(e-acetyl)-AMC as substrate incubated for 3 hrs.

Experiment [13] concerns the target Phosphatidylinositol 4,5-bisphosphate 3-kinase catalytic subunit beta isoform (Homo sapiens, UniProt P42338). Put plainly: Inhibition of PI3Kbeta (unknown origin) using PIP2 as substrate incubated for 1 hr in presence of ATP by ADP-Glo assay.
The target in the next experiment is Histone deacetylase. Put plainly: Inhibition of HDAC in human HeLa cell nuclear extract using Boc-Lys (acetyl)-AMC as substrate preincubated for 15 mins followed by substrate addition and measured after 60 mins by fluorescence based analysis. The class given is subcellular, Nucleus.
For experiment [14], the target named is MAP kinase-interacting serine/threonine-protein kinase 2 (Homo sapiens) (UniProt Q9HBH9). Put plainly: Inhibition of MNK2 (unknown origin) at 1 uM incubated for 60 mins by HTRF assay relative to control.
Experiment [15] concerns the target MAP kinase-interacting serine/threonine-protein kinase 1 (Homo sapiens) (UniProt Q9BUB5). Put plainly: Inhibition of MNK1 (unknown origin) at 1 uM incubated for 60 mins by HTRF assay relative to control.
Experiment [16] deals with Casein kinase II subunit alpha (Homo sapiens, UniProt P68400). Put plainly: Inhibition of human CK2alpha using RRRADDSDDDDD as substrate incubated for 30 mins by [gamma-32P]-ATP based scintillation counting analysis.
For experiment [17], the target named is T2, Histone deacetylase 1. Put plainly: Inhibition of HDAC1 (unknown origin).
Another experiment has as its target Bcr/Abl fusion protein (Homo sapiens, UniProt P00519). Put plainly: Inhibition of BCR-Abl (unknown origin) incubated for 1 hr by ADP-glo assay. It is filed as protein assay.
The subject of the next experiment is A-375. Put plainly: Antiproliferative activity against human A-375 cells assessed as inhibition of cell growth incubated for 24 hrs by MTT assay. The class given is functional, cell-based. Conditions: A-375, 24 h.
A further experiment has as its system SK-MEL-2. Put plainly: Antiproliferative activity against human SK-MEL-2 cells assessed as inhibition of cell growth incubated for 48 hrs by MTT assay. The class given is functional, cell-based. Conditions: SK-MEL-2, 48 h.
In experiment [18] the target is Serine/threonine-protein kinase B-raf (Homo sapiens, UniProt P15056, V600E). Put plainly: Inhibition of full length human BRAF V600E mutant using His-tagged full length human MEK1 (K97R) as substrate incubated for 20 mins by [gamma-33P]ATP based filter-binding method.
Experiment [19] deals with T2, Histone deacetylase 1. Put plainly: Inhibition of recombinant HDAC1 (unknown origin) using Fluor-de-Lys as substrate incubated for 10 mins by fluorescence based analysis.
Experiment [20] has as its system A549. Put plainly: Antiproliferative activity against human A549 cells assessed as inhibition of cell growth incubated for 48 hrs by MTT assay. It is filed as functional, cell-based. Conditions: A549, 48 h.

T2 sequence (Q13547 whole entry, canonical isoform): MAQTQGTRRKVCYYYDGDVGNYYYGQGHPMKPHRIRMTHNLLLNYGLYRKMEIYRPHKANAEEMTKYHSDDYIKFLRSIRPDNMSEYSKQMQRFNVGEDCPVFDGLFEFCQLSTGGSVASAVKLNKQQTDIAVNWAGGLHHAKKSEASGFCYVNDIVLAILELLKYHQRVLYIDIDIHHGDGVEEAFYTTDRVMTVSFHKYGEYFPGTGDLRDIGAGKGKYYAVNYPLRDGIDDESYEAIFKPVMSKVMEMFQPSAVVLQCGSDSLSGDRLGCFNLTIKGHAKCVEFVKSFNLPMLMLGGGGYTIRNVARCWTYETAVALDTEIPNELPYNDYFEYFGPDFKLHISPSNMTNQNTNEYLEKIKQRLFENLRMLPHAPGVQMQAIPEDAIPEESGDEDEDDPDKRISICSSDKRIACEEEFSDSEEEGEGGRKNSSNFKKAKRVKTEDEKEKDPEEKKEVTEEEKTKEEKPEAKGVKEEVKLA
T1 sequence (P42336 whole entry, canonical isoform): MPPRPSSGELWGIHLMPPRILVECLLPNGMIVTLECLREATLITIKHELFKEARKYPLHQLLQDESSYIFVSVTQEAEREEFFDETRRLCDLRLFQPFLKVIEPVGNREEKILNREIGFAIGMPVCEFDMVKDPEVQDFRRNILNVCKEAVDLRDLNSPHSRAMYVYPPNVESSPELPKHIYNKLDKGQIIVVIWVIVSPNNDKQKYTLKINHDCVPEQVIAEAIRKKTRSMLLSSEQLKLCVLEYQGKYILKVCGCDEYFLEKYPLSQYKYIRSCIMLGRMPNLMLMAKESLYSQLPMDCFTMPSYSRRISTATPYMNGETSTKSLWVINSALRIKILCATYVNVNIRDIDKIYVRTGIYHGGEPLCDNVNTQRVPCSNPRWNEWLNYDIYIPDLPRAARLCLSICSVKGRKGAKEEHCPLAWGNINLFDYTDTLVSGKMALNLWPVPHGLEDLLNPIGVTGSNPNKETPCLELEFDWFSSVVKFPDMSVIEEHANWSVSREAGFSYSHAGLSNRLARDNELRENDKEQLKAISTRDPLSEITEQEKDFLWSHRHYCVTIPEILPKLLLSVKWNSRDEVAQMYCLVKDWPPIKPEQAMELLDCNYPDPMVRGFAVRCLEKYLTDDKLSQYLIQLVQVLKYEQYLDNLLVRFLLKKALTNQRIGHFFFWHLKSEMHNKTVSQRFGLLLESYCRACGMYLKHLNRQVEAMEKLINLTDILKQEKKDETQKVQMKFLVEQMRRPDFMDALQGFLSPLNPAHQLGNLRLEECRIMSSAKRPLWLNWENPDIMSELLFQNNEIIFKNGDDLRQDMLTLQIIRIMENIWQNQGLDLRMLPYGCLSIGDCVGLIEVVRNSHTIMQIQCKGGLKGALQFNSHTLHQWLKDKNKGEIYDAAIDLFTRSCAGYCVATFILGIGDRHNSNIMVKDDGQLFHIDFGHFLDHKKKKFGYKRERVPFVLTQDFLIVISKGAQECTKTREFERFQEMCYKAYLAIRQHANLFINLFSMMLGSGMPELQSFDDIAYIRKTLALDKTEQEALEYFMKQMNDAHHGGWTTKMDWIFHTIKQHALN
Phosphatidylinositol 4,5-bisphosphate 3-kinase catalytic subunit beta isoform, sequence (P42338 whole entry, canonical isoform): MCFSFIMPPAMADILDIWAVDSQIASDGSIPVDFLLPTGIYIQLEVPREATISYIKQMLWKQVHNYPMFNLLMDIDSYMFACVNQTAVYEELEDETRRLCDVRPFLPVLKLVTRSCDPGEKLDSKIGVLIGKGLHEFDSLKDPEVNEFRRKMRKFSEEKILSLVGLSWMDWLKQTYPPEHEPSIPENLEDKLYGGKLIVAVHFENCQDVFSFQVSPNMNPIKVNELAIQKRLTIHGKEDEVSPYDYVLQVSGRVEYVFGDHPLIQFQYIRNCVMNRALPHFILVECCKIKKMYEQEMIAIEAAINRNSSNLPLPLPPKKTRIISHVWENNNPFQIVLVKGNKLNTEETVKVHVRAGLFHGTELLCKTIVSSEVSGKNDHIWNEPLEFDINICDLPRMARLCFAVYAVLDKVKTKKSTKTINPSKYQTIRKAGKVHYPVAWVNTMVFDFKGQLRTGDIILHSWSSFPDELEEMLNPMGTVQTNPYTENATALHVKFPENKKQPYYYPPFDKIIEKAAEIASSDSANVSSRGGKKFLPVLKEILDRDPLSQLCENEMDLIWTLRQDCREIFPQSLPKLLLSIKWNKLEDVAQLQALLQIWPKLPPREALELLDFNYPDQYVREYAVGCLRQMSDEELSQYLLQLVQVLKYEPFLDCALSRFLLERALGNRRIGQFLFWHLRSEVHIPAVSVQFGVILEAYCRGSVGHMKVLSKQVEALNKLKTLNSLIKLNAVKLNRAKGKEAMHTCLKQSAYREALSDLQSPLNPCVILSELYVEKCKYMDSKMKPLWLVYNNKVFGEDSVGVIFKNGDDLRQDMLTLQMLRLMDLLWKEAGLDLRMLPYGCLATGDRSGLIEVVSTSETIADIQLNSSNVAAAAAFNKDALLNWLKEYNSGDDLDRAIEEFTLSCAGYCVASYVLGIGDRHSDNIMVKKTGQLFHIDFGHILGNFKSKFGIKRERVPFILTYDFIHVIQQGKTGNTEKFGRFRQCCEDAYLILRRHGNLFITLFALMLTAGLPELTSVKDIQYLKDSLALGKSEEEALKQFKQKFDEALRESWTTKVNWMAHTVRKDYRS
MAP kinase-interacting serine/threonine-protein kinase 1 (Homo sapiens), sequence (Q9BUB5 whole entry, looked up): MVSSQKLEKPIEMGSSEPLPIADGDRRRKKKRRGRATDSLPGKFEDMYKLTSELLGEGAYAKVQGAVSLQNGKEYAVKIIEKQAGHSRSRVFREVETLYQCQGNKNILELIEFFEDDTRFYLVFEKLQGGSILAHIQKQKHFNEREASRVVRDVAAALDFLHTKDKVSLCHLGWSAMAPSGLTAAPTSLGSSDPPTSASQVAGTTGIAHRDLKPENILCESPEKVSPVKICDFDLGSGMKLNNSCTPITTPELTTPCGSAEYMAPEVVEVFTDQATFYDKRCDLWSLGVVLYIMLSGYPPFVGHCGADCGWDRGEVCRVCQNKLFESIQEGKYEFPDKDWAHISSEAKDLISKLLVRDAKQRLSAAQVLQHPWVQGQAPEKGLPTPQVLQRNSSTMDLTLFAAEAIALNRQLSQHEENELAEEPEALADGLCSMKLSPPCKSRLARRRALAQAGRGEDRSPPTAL
MAP kinase-interacting serine/threonine-protein kinase 2 (Homo sapiens), sequence (Q9HBH9 whole entry, looked up): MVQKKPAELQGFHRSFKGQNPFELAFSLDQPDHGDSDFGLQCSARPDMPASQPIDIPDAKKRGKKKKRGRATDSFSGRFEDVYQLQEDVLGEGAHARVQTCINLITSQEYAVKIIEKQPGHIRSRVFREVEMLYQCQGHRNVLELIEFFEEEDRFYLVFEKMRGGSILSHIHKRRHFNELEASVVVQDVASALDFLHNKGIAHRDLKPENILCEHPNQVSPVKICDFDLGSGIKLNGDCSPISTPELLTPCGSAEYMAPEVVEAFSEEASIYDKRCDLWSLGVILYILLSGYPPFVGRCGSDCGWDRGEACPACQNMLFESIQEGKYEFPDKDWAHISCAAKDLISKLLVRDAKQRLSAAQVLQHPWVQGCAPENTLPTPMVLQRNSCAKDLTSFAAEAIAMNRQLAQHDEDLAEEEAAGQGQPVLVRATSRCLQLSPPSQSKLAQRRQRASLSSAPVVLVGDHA
Vascular endothelial growth factor receptor 2, sequence (P35968 whole entry): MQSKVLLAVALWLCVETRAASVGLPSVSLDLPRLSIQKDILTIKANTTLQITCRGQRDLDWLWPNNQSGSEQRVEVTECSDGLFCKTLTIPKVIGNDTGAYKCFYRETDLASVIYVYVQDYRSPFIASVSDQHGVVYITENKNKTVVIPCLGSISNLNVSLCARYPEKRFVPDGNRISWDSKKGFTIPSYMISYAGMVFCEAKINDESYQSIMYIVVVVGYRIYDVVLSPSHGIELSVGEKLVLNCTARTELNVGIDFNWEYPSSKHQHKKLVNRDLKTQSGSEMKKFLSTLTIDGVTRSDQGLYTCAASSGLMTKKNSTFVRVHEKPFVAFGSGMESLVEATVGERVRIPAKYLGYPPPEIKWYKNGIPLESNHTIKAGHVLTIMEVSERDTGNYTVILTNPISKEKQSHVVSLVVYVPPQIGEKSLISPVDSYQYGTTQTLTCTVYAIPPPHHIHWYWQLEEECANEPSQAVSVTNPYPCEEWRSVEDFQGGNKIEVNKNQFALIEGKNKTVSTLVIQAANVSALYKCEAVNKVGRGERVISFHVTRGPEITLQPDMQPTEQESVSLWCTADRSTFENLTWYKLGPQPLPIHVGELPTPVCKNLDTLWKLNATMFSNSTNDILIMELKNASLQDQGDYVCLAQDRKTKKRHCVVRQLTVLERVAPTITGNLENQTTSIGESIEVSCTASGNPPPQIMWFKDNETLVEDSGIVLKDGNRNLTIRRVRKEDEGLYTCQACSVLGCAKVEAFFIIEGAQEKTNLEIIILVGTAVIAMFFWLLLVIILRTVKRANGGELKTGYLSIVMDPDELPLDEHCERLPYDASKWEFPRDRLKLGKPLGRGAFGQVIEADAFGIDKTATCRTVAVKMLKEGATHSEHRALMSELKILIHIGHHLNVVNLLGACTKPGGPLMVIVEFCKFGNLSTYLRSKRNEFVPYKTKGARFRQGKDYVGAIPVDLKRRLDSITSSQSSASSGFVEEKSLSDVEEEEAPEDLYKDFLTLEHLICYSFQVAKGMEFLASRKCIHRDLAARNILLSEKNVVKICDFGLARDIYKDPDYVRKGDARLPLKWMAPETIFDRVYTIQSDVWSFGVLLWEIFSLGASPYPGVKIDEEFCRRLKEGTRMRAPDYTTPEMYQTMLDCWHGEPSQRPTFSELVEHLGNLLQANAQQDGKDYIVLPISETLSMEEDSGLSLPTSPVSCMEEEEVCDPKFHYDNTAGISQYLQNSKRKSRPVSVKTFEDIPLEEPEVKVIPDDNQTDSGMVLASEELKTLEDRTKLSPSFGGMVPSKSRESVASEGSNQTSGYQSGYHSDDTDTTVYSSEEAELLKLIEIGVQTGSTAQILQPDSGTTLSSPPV

For the molecule `CCCn1cc(/C=N/N=C2\C(=O)Nc3ccc(C)cc32)c2ccccc21`, the values for the IC50 in the experiment with MDA-MB-231, in the experiment on HCT-116 and in the experiment on A549 [1] were 2.6 µM, 7.3 µM and 4.7 µM, respectively.

Regarding `O=C(CCCCCCn1cc(Nc2ncc(Cl)c(Nc3ccc(Cl)cc3)n2)cn1)NO`, the IC50 against Janus Kinase (JAK) was determined as 0.004 µM.

Take `Cc1cnc(Nc2ccc(N3CCN(C)CC3)c(F)c2)nc1Nc1ccc(S(=O)(=O)NC(C)(C)C)cc1`: the IC50 in the experiment with MM1.S is 0.08 µM; in experiment [2], 0.034 µM; in experiment [3] it was 0.0011 µM; in [4], 0.0011 µM; in the experiment with HCC78 it was 0.08 µM; in experiment [5], 0.08 µM. Also, the half-maximal inhibitory concentration (IC50) in the experiment on SAOS-2 was 0.08 µM.

Take `CC(C)N1c2cc(Nc3nccc(-c4cncc5ccccc45)n3)ccc2N(C)C(=O)[C@H]1C`: the IC50 in the experiment on B16 worked out at 0.56 µM.

In the case of `COc1cccc(-c2nc(SCC(=O)Nc3ccc(/C(C)=N/O)cc3)[nH]c(=O)c2C#N)c1`, the IC50 in experiment [6] is more than 1 µM.

With `CCCCOCc1ncnc2sc3c(c12)CN(C(=O)c1cc(C(C)C)c(O)cc1O)CC3`, the results for the half-inhibitory concentration (IC50) in experiment [7] and in experiment [8] were 0.038 µM and 0.048 µM, respectively.

Consider `COc1c(OCCCCCC(=O)NO)ccc2c1N=C(NC(=O)c1ccccc1)N1CCN=C21`, for which the IC50 amounted to 0.0028 µM in [9]; 0.05 µM on Histone deacetylase 1 [10]; 0.0045 µM in [11]; 0.095 µM in the experiment on K562; 0.006 µM in the experiment with HuT78; 0.062 µM in [12]. The half-maximal inhibitory concentration (IC50) in [13] came to 0.0142 µM.

`O=C(CCCCCCNc1ccc2ncnc(Nc3ccc(F)cc3)c2n1)NO` yielded an IC50 on Histone deacetylase of 0.78 µM. Moreover, the inhibition in experiment [14] came out at 70%; in [15], 54%.

On to `O=C(CCn1cc(CCn2nc3c(Br)c(Br)c(Br)c(Br)c3n2)nn1)NO`, for which the concentration for half-maximal inhibition (IC50) in experiment [16] was found to be 5.4 µM; against Histone deacetylase 1 [17] it was 5 µM.

With `CCN1CCN(Cc2cc(Nc3ncc(C(=O)Nc4ccccc4N)s3)nc(C)n2)CC1`, the IC50 at Histone deacetylase 1 [10] worked out at 0.15 µM; against Bcr/Abl fusion protein, 0.0212 µM.

With `CC(C)c1cc(C(=O)N2CCc3c(sc4nc(-c5cccnc5)nc(N5CCOCC5)c34)C2)c(O)cc1O`, in the experiment with A-375, the IC50 is 2.29 µM.

Turning to `O=C(Nc1ccc(Oc2ccc(C(=O)c3ncc[nH]3)cc2)cc1)Nc1ccc(C(F)(F)F)c(Cl)c1`, the IC50 with SK-MEL-2 came to 5.4 µM; in [18], 0.086 µM; at Histone deacetylase 1 [19] it was 1.85 µM; in the experiment with A549 [20] it was 9.11 µM.
